Measured values reported in patent US6455540B1, “Methods of use of quinolone compounds against anaerobic pathogenic bacteria” (priority 1999, dated 2002).

Assays:
Test in all cases: Agar dilution MIC
[1] = system: Prevotella denticola/loeschii group; type: cell-based; settings: 6 isolates; for MIC50: Prevotella denticola, read-out: Minimal Inhibitory Concentration 50% (MIC50)
Porphyromonas gingivalis = type: cell-based; settings: Porphyromonas gingivalis, 13 isolates; for MIC50: read-out: Minimal Inhibitory Concentration 50% (MIC50); for MIC90: read-out: Minimal Inhibitory Concentration 90% (MIC90)
Porphyromonas canoris = type: cell-based; settings: Porphyromonas canoris, 10 isolates; for MIC50: read-out: Minimal Inhibitory Concentration 50% (MIC50); for MIC90: read-out: Minimal Inhibitory Concentration 90% (MIC90)
Fusobacterium russii = type: cell-based; settings: for MIC50 / MIC90: Fusobacterium russii; for MIC50: read-out: Minimal Inhibitory Concentration 50% (MIC50); for MIC90: read-out: Minimal Inhibitory Concentration 90% (MIC90)
[2] = system: Peptostreptococcus asaccharolyticus; type: cell-based; settings: Peptoniphilus asaccharolyticus, 11 isolates; for MIC50: read-out: Minimal Inhibitory Concentration 50% (MIC50); for MIC90: read-out: Minimal Inhibitory Concentration 90% (MIC90)
[3] = system: Clostridium clostridioforme; type: cell-based; settings: Clostridium, 11 isolates; for MIC90: read-out: Minimal Inhibitory Concentration 90% (MIC90); for MIC50: read-out: Minimal Inhibitory Concentration 50% (MIC50)
Actinomyces israelii = type: cell-based; settings: 6 isolates; for MIC50: Actinomyces israelii, read-out: Minimal Inhibitory Concentration 50% (MIC50)
[4] = system: Peptostreptococcus prevotii; type: cell-based; settings: 9 isolates; for MIC50: Anaerococcus prevotii, read-out: Minimal Inhibitory Concentration 50% (MIC50)
[5] = system: Anaerobiospirillum thomasii; type: cell-based; settings: Anaerobiospirillum thomasii, 13 isolates; for MIC50: read-out: Minimal Inhibitory Concentration 50% (MIC50); for MIC90: read-out: Minimal Inhibitory Concentration 90% (MIC90)
Veillonella spp. = type: cell-based; settings: Veillonella, 24 isolates; for MIC90: read-out: Minimal Inhibitory Concentration 90% (MIC90); for MIC50: read-out: Minimal Inhibitory Concentration 50% (MIC50)
Fusobacterium varium = type: cell-based; settings: 17 isolates; for MIC50 / MIC90: Fusobacterium varium; for MIC50: read-out: Minimal Inhibitory Concentration 50% (MIC50); for MIC90: read-out: Minimal Inhibitory Concentration 90% (MIC90)
Clostridium inocuum = type: cell-based, Clostridium innocuum; settings: Clostridium, 11 isolates; for MIC90: read-out: Minimal Inhibitory Concentration 90% (MIC90); for MIC50: read-out: Minimal Inhibitory Concentration 50% (MIC50)
[6] = system: Peptostreptococcus micros; type: cell-based; settings: 12 isolates; for MIC50 / MIC90: Parvimonas micra; for MIC50: read-out: Minimal Inhibitory Concentration 50% (MIC50); for MIC90: read-out: Minimal Inhibitory Concentration 90% (MIC90)
[7] = system: Actinomyces odontolyticus; type: cell-based; settings: Schaalia odontolytica, 10 isolates; for MIC90: read-out: Minimal Inhibitory Concentration 90% (MIC90); for MIC50: read-out: Minimal Inhibitory Concentration 50% (MIC50)
Clostridium ramosum = type: cell-based; settings: 10 isolates; for MIC50 / MIC90: Thomasclavelia ramosa; for MIC50: read-out: Minimal Inhibitory Concentration 50% (MIC50); for MIC90: read-out: Minimal Inhibitory Concentration 90% (MIC90)
[8] = system: Prevotella buccae-oris group; type: cell-based; settings: Prevotella, 22 isolates; for MIC90: read-out: Minimal Inhibitory Concentration 90% (MIC90); for MIC50: read-out: Minimal Inhibitory Concentration 50% (MIC50)
Porphyromonas spp. = type: cell-based, Porphyromonas cangingivalis, cansulci, circumdentaria, levii; settings: Porphyromonas, 11 isolates; for MIC50: read-out: Minimal Inhibitory Concentration 50% (MIC50); for MIC90: read-out: Minimal Inhibitory Concentration 90% (MIC90)
[9] = system: Fusobacterium spp. group 2; type: cell-based, Fusobacterium mortiferum, necrogenes, ulcerans; settings: 12 isolates; for MIC50 / MIC90: Fusobacterium; for MIC50: read-out: Minimal Inhibitory Concentration 50% (MIC50); for MIC90: read-out: Minimal Inhibitory Concentration 90% (MIC90)
[10] = system: Prevotella heparinolytica; type: cell-based; settings: 16 isolates; for MIC90 / MIC50: Prevotella heparinolytica; for MIC90: read-out: Minimal Inhibitory Concentration 90% (MIC90); for MIC50: read-out: Minimal Inhibitory Concentration 50% (MIC50)
Bilophila wadsworthia = type: cell-based; settings: 16 isolates, agar supplemented with pyruvate; for MIC90 / MIC50: Bilophila wadsworthia; for MIC90: read-out: Minimal Inhibitory Concentration 90% (MIC90); for MIC50: read-out: Minimal Inhibitory Concentration 50% (MIC50)
Prevotella intermedia = type: cell-based; settings: 11 isolates; for MIC90 / MIC50: Prevotella intermedia; for MIC90: read-out: Minimal Inhibitory Concentration 90% (MIC90); for MIC50: read-out: Minimal Inhibitory Concentration 50% (MIC50)
[11] = system: Porphyromonas asaccharolyticus; type: cell-based, Porphyromonas asaccharolytica; settings: Porphyromonas, 11 isolates; for MIC50: read-out: Minimal Inhibitory Concentration 50% (MIC50); for MIC90: read-out: Minimal Inhibitory Concentration 90% (MIC90)
[12] = system: Fusobacterium spp group 1; type: cell-based; settings: 19 isolates; for MIC50 / MIC90: Fusobacterium; for MIC50: GROUP1, read-out: Minimal Inhibitory Concentration 50% (MIC50); for MIC90: GROUP1, read-out: Minimal Inhibitory Concentration 90% (MIC90)
Bacteroides ureolyticus = type: cell-based; settings: 17 isolates; for MIC90 / MIC50: Campylobacter ureolyticus; for MIC90: read-out: Minimal Inhibitory Concentration 90% (MIC90); for MIC50: read-out: Minimal Inhibitory Concentration 50% (MIC50)
Porphyromonas macaccae = type: cell-based; settings: Porphyromonas, 13 isolates; for MIC50: read-out: Minimal Inhibitory Concentration 50% (MIC50); for MIC90: read-out: Minimal Inhibitory Concentration 90% (MIC90)
[13] = system: Peptostreptococcus magnus; type: cell-based; settings: 13 isolates; for MIC50 / MIC90: Finegoldia magna; for MIC50: read-out: Minimal Inhibitory Concentration 50% (MIC50); for MIC90: read-out: Minimal Inhibitory Concentration 90% (MIC90)
[14] = system: Prevotella melaninogenica; type: cell-based; settings: Prevotella melaninogenica, 12 isolates; for MIC90: read-out: Minimal Inhibitory Concentration 90% (MIC90); for MIC50: read-out: Minimal Inhibitory Concentration 50% (MIC50)
[15] = system: Anaerobiospirillum succiniciproducens; type: cell-based; settings: 3 isolates; for MIC50: Anaerobiospirillum succiniciproducens, read-out: Minimal Inhibitory Concentration 50% (MIC50)
Clostridium dfficile = type: cell-based, Clostridium difficile; settings: Clostridium; for MIC90: read-out: Minimal Inhibitory Concentration 90% (MIC90), 14 isolates
Bacteroides gracilis = type: cell-based, Bacteroides gracilis (Campylobacter gracilis); settings: 11 isolates; for MIC90 / MIC50: Campylobacter gracilis; for MIC90: read-out: Minimal Inhibitory Concentration 90% (MIC90); for MIC50: read-out: Minimal Inhibitory Concentration 50% (MIC50)
Bacteroides tectum = type: cell-based; settings: 22 isolates; for MIC90 / MIC50: Bacteroides pyogenes; for MIC90: read-out: Minimal Inhibitory Concentration 90% (MIC90); for MIC50: read-out: Minimal Inhibitory Concentration 50% (MIC50)
Prevotella bivia = type: cell-based; settings: Prevotella bivia, 21 isolates; for MIC90: read-out: Minimal Inhibitory Concentration 90% (MIC90); for MIC50: read-out: Minimal Inhibitory Concentration 50% (MIC50)

CC[C@H]1OC(=O)[C@H](C)[C@@H](O[C@H]2C[C@@](C)(OC)[C@@H](O)[C@H](C)O2)[C@H](C)[C@@H](O[C@@H]2O[C@H](C)C[C@H](N(C)C)[C@H]2O)[C@](C)(O)C[C@@H](C)CN(C)[C@H](C)[C@@H](O)[C@]1(C)O [Azithromycin]
0.25 µg/mL: MIC50 (Porphyromonas gingivalis) | MIC50 (Porphyromonas canoris) | MIC90 (Porphyromonas canoris) | MIC50 (Fusobacterium russii) | MIC50 (Clostridium ramosum) | MIC50 (Porphyromonas spp.) | MIC50 [11] | MIC90 (Bacteroides ureolyticus) | MIC50 [14]
0.03 µg/mL: MIC50 [7]
0.06 to 32 µg/mL: Minimal Inhibitory Concentration Range [12]
8 µg/mL: MIC90 [12]
16 µg/mL: MIC50 [3] | MIC50 [9] | MIC90 (Bilophila wadsworthia)
0.5 to 2 µg/mL: Minimal Inhibitory Concentration Range (Bacteroides tectum)
1 to 16 µg/mL: Minimal Inhibitory Concentration Range (Bilophila wadsworthia)
4 µg/mL: MIC50 [2] | MIC50 (Veillonella spp.) | MIC50 (Bilophila wadsworthia) | MIC50 [13]
0.5 µg/mL: MIC50 [1] | MIC90 (Porphyromonas gingivalis) | MIC50 [5] | MIC50 [6] | MIC50 [8] | MIC90 (Porphyromonas spp.) | MIC50 [10] | MIC90 (Prevotella intermedia) | MIC50 (Porphyromonas macaccae) | MIC90 (Porphyromonas macaccae) | MIC50 [15] | MIC90 (Bacteroides gracilis) | MIC50 (Prevotella bivia)
0.03 to 1 µg/mL: Minimal Inhibitory Concentration Range (Prevotella intermedia)
0.5 to 1 µg/mL: Minimal Inhibitory Concentration Range [6] | Minimal Inhibitory Concentration Range [10] | Minimal Inhibitory Concentration Range [15]
> 32 µg/mL: MIC90 [2] | MIC90 [3] | MIC90 (Veillonella spp.) | MIC90 (Fusobacterium varium) | MIC90 (Clostridium inocuum) | MIC50 (Clostridium inocuum) | MIC90 (Clostridium ramosum) | MIC90 [11] | MIC90 [13] | MIC90 (Clostridium dfficile)
0.06 to 16 µg/mL: Minimal Inhibitory Concentration Range [1]
0.06 µg/mL: Minimal Inhibitory Concentration Range (Actinomyces israelii) | MIC50 (Actinomyces israelii) | MIC90 [7] | MIC50 (Bacteroides ureolyticus)
0.06 to 0.5 µg/mL: Minimal Inhibitory Concentration Range (Bacteroides gracilis)
2 µg/mL: MIC50 (Clostridium dfficile; read-out: Minimal Inhibitory Concentration 50% (MIC50)) | MIC90 (Bacteroides tectum)
32 µg/mL: MIC90 (Fusobacterium russii) | MIC50 [4] | MIC50 (Fusobacterium varium) | MIC90 [9] | MIC90 [14]
0.03 to 32 µg/mL: Minimal Inhibitory Concentration Range (Fusobacterium russii)
0.125 µg/mL: MIC50 (Prevotella intermedia) | MIC50 (Bacteroides gracilis)
0.06 to 0.25 µg/mL: Minimal Inhibitory Concentration Range (Bacteroides ureolyticus)
1 µg/mL: MIC90 [5] | MIC90 [6] | MIC90 [8] | MIC90 [10] | MIC50 [12] | MIC50 (Bacteroides tectum) | MIC90 (Prevotella bivia)

CCC[C@@H]1C[C@@H](C(=O)N[C@@H]([C@H]2O[C@H](SC)[C@H](O)[C@@H](O)[C@H]2O)[C@H](C)Cl)N(C)C1 [Clindamycin]
0.25 to 4 µg/mL: Minimal Inhibitory Concentration Range (Clostridium ramosum)
32 µg/mL: MIC50 [5] | Minimal Inhibitory Concentration Range [15] | MIC50 [15]
0.06 to 0.25 µg/mL: Minimal Inhibitory Concentration Range (Actinomyces israelii)
≤ 0.015 µg/mL: MIC50 [1] | MIC50 (Porphyromonas gingivalis) | MIC90 (Porphyromonas gingivalis) | MIC50 (Porphyromonas canoris) | MIC90 (Porphyromonas canoris) | MIC50 [8] | MIC50 (Porphyromonas spp.) | MIC90 (Porphyromonas spp.) | MIC90 [10] | MIC50 [10] | MIC90 (Prevotella intermedia) | MIC50 (Prevotella intermedia) | MIC50 [11] | MIC50 (Porphyromonas macaccae) | MIC90 (Porphyromonas macaccae) | MIC50 [14] | MIC90 (Bacteroides tectum) | MIC50 (Bacteroides tectum) | MIC50 (Prevotella bivia)
0.25 to 2 µg/mL: Minimal Inhibitory Concentration Range (Bilophila wadsworthia)
0.03 µg/mL: MIC50 (Fusobacterium russii) | MIC90 [8] | MIC90 (Prevotella bivia)
> 32 µg/mL: MIC90 [2] | MIC90 [5] | MIC90 (Clostridium inocuum) | MIC90 [11] | MIC90 (Clostridium dfficile)
0.03 to 0.5 µg/mL: Minimal Inhibitory Concentration Range (Bacteroides ureolyticus)
0.06 to 8 µg/mL: Minimal Inhibitory Concentration Range [9]
0.06 to 0.125 µg/mL: Minimal Inhibitory Concentration Range [6]
4 µg/mL: MIC50 (Fusobacterium varium)
0.06 to 2 µg/mL: Minimal Inhibitory Concentration Range [13]
8 µg/mL: MIC90 [9]
1 µg/mL: MIC50 [4] | MIC50 [9]
0.125 µg/mL: MIC50 [6] | MIC90 [6] | MIC50 [7] | MIC90 [12]
16 µg/mL: MIC90 (Fusobacterium varium)
2 µg/mL: MIC90 [3] | MIC90 (Veillonella spp.) | MIC50 (Clostridium ramosum) | MIC90 (Clostridium ramosum) | MIC90 (Bilophila wadsworthia) | MIC90 [13] | MIC90 (Bacteroides gracilis)
0.03 to 8 µg/mL: Minimal Inhibitory Concentration Range (Bacteroides gracilis)
0.25 µg/mL: MIC90 [7] | MIC90 (Bacteroides ureolyticus) | MIC50 (Bacteroides gracilis)
0.06 µg/mL: MIC90 (Fusobacterium russii) | MIC50 [2] | MIC50 [3] | MIC50 (Actinomyces israelii) | MIC50 (Veillonella spp.) | MIC50 [12] | MIC50 (Bacteroides ureolyticus)
0.030 to 32 µg/mL: Minimal Inhibitory Concentration Range [4]
0.5 µg/mL: MIC50 (Clostridium inocuum) | MIC50 (Bilophila wadsworthia) | MIC50 [13] | MIC90 [14]
0.06 to 16 µg/mL: Minimal Inhibitory Concentration Range (Fusobacterium varium)
